Laboratory results as given in paper PMC8201645 (Journal of medicinal chemistry, 2020).
Read-outs that look alike come from different tables or passages of the source.

What was measured:
PPARγ = molecular target: T1, PPARγ (Homo sapiens, UniProt P37231); conditions: TR-FRET-based assay
T1 sequence (P37231 235-505 limits assumed): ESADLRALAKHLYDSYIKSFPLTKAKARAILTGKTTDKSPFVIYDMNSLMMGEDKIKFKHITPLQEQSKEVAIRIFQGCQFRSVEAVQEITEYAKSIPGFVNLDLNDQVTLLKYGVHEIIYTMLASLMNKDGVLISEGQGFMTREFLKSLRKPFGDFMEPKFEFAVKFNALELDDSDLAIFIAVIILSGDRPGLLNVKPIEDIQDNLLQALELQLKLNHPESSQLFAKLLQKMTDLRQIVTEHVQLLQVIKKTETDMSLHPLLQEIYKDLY

PPARδ = molecular target: T2, PPARδ (Homo sapiens, UniProt Q03181); conditions: TR-FRET-based assay
T2 sequence (Q03181 171-441 limits assumed): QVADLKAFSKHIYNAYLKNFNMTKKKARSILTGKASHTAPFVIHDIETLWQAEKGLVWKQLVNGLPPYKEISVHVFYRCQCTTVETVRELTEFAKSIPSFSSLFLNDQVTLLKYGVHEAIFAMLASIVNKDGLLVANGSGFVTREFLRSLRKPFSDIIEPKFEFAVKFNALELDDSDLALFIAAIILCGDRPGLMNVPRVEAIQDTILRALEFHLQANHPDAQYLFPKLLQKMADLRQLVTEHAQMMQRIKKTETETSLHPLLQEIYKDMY

hBM-MSCs = conditions: 10 μM cotreated with IDX medium for 5 d
PPARδ-LBD [1] = molecular target: T3, PPARδ-LBD (Homo sapiens, UniProt Q03181)
T3 sequence (Q03181 211-439 limits assumed): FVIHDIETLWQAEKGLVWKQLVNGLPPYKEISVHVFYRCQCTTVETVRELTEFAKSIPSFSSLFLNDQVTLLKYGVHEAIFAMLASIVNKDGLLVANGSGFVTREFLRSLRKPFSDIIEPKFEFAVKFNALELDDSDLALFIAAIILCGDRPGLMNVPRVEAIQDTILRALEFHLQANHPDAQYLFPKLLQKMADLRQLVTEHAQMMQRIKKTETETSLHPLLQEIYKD

PPARδ-LBD [2] = molecular target: T3, PPARδ-LBD; remark: listed apart in the source
human A3AR [3] = molecular target: T4, human A3AR (Homo sapiens, UniProt P0DMS8); conditions: at 10 μM; previously reported; cited from earlier work
T4 sequence (P0DMS8 1-318): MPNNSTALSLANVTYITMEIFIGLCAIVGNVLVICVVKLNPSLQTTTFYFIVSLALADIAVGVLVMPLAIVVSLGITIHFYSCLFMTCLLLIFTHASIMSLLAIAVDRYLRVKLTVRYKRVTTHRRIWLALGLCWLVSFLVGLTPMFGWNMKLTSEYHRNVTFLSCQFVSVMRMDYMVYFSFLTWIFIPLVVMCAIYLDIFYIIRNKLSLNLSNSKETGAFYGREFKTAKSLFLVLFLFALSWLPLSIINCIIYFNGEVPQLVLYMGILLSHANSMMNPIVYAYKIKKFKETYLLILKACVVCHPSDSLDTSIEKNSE

PPARγ-LBD = molecular target: T5, PPARγ-LBD (Homo sapiens, UniProt P37231); conditions: fluorescein-TRAP220/DRIP peptide
T5 sequence (P37231 238-503 limits assumed): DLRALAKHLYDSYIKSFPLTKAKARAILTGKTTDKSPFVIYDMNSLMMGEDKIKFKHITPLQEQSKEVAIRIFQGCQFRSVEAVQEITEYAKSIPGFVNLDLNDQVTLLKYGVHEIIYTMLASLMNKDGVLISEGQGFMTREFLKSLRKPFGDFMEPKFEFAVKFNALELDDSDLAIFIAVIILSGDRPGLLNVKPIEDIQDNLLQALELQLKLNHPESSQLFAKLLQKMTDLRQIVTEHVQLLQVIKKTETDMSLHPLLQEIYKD

human A3AR [4] = molecular target: T4, human A3AR; conditions: at 10 μM

Structure (SMILES)	adiponectin production compared to the IDX vehicle control (hBM-MSCs)	interaction between PPARδ-LBD and corepressor peptide SMRT-ID2 (PPARδ-LBD [1])	recruitment of coactivator peptide C33 to PPARδ-LBD (PPARδ-LBD [2])	hA3AR % replacement (human A3AR [3]) [% at 10 μM]	other results
O[C@@H]1[C@H](O)CS[C@H]1Cn1cnc2c(NCc3cccc(F)c3)nc(Cl)nc21 [4a, (2S,3R,4S)-2-((2-Chloro-6-((3-fluorobenzyl)amino)-9H-purin-9-yl)methyl)tetrahydrothiophene-3,4-diol]	significantly promoted adiponectin production	significantly increased the interaction between PPARδ-LBD and the corepressor peptide	no effect on the recruitment of coactivator peptide	17	PPARγ-binding activity (in words) (PPARγ): significant dual receptor-binding activity; PPARδ-binding activity (in words) (PPARδ): significant dual receptor-binding activity
O[C@@H]1[C@H](O)CS[C@H]1Cn1cnc2c(NCc3cccc(Cl)c3)nc(Cl)nc21 [4b, (2S,3R,4S)-2-((2-Chloro-6-((3-chlorobenzyl)amino)-9H-purin-9-yl)methyl)tetrahydrothiophene-3,4-diol]	–	–	–	13	–
O[C@@H]1[C@H](O)CS[C@H]1Cn1cnc2c(NCc3cccc(Br)c3)nc(Cl)nc21 [4c, (2S,3R,4S)-2-((6-((3-Bromobenzyl)amino)-2-chloro-9H-purin-9-yl)methyl)tetrahydrothiophene-3,4-diol]	significantly promoted adiponectin production	significantly increased the interaction between PPARδ-LBD and the corepressor peptide	no effect on the recruitment of coactivator peptide	21	PPARγ-binding activity (in words) (PPARγ): significant dual receptor-binding activity; PPARδ-binding activity (in words) (PPARδ): significant dual receptor-binding activity
O[C@@H]1[C@H](O)CS[C@H]1Cn1cnc2c(NCc3cccc(I)c3)nc(Cl)nc21 [4d, (2S,3R,4S)-2-((2-Chloro-6-((3-iodobenzyl)amino)-9H-purin-9-yl)-methyl)tetrahydrothiophene-3,4-diol]	–	significantly increased the interaction between PPARδ-LBD and the corepressor peptide	no effect on the recruitment of coactivator peptide	10	PPARδ-binding activity (in words) (PPARδ): significant dual receptor-binding activity; PPARδ corepressor recruitment in presence of PPARδ agonist 27 (PPARδ-LBD [1]; 27 (1 μM), 4d (10 μM), 28 (1 μM)): significantly inhibited by 27
O[C@@H]1[C@H](O)CS[C@H]1Cn1cnc2c(NCc3cccc(F)c3)ncnc21 [4e, (2S,3R,4S)-2-((6-((3-Fluorobenzyl)amino)-9H-purin-9-yl)methyl)-tetrahydrothiophene-3,4-diol]	–	–	–	9	–
O[C@@H]1[C@H](O)CS[C@H]1Cn1cnc2c(NCc3cccc(Cl)c3)ncnc21 [4f, (2S,3R,4S)-2-((6-((3-Chlorobenzyl)amino)-9H-purin-9-yl)methyl)-tetrahydrothiophene-3,4-diol]	–	–	–	9	–
O[C@@H]1[C@H](O)CS[C@H]1Cn1cnc2c(NCc3cccc(Br)c3)ncnc21 [4g, (2S,3R,4S)-2-((6-((3-Bromobenzyl)amino)-9H-purin-9-yl)methyl)-tetrahydrothiophene-3,4-diol]	–	–	–	6	–
O[C@@H]1[C@H](O)CS[C@H]1Cn1cnc2c(NCc3cccc(I)c3)ncnc21 [4h, (2S,3R,4S)-2-((6-((3-Iodobenzyl)amino)-9H-purin-9-yl)methyl)-tetrahydrothiophene-3,4-diol]	–	–	–	14	–
CC#Cc1nc(NCc2cccc(F)c2)c2ncn(C[C@@H]3SC[C@@H](O)[C@H]3O)c2n1 [4i, (2S,3R,4S)-2-((6-((3-Fluorobenzyl)amino)-2-(prop-1-yn-1-yl)-9H-purin-9-yl)methyl)tetrahydrothiophene-3,4-diol]	significantly promoted adiponectin production	–	–	–	–
CC#Cc1nc(NCc2cccc(Cl)c2)c2ncn(C[C@@H]3SC[C@@H](O)[C@H]3O)c2n1 [4j, (2S,3R,4S)-2-((6-((3-Chlorobenzyl)amino)-2-(prop-1-yn-1-yl)-9H-purin-9-yl)methyl)tetrahydrothiophene-3,4-diol]	–	–	–	–	coactivator peptide recruitment to PPARγ-LBD (PPARγ-LBD): no statistical significance
CC#Cc1nc(NCc2cccc(Br)c2)c2ncn(C[C@@H]3SC[C@@H](O)[C@H]3O)c2n1 [4k, (2S,3R,4S)-2-((6-((3-Bromobenzyl)amino)-2-(prop-1-yn-1-yl)-9H-purin-9-yl)methyl)tetrahydrothiophene-3,4-diol]	significantly promoted adiponectin production	–	–	–	–
CC#Cc1nc(NCc2cccc(I)c2)c2ncn(C[C@@H]3SC[C@@H](O)[C@H]3O)c2n1 [4l, (2S,3R,4S)-2-((6-((3-Iodobenzyl)amino)-2-(prop-1-yn-1-yl)-9H-purin-9-yl)methyl)tetrahydrothiophene-3,4-diol]	significantly promoted adiponectin production	–	–	–	–
O[C@@H]1[C@H](O)CO[C@H]1Cn1cnc2c(NCc3cccc(Cl)c3)nc(Cl)nc21 [4n, (2S,3R,4R)-2-((2-Chloro-6-((3-chlorobenzyl)amino)-9H-purin-9-yl)methyl)tetrahydrofuran-3,4-diol]	significantly promoted adiponectin production	significantly increased the interaction between PPARδ-LBD and the corepressor peptide	no effect on the recruitment of coactivator peptide	–	–
O[C@@H]1[C@H](O)CO[C@H]1Cn1cnc2c(NCc3cccc(Br)c3)nc(Cl)nc21 [4o, (2S,3R,4R)-2-((6-((3-Bromobenzyl)amino)-2-chloro-9H-purin-9-yl)methyl)tetrahydrofuran-3,4-diol]	significantly promoted adiponectin production	significantly increased the interaction between PPARδ-LBD and the corepressor peptide	no effect on the recruitment of coactivator peptide	–	–
O[C@@H]1[C@H](O)CO[C@H]1Cn1cnc2c(NCc3cccc(I)c3)nc(Cl)nc21 [4p, (2S,3R,4R)-2-((2-Chloro-6-((3-iodobenzyl)amino)-9H-purin-9-yl)-methyl)tetrahydrofuran-3,4-diol]	–	–	–	–	hA3AR % replacement (human A3AR [4]): 3% at 10 μM
